“And” between values parts separate entries of the source, which are not always exact repeats. Identical values can stand only once. Inconclusive results and toxic doses are left out.
System: P388 leukemia ip, CD2F1 mice, survival T/C
Assay: NCI In Vivo Anticancer Drug Screen. Data for tumor model P388 Leukemia (intraperitoneal) in CD2F1 (CDF1) mice
Conditions: endpoint: median survival time, higher = longer survival
How it was run: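 Mice carrying the transplanted tumor received test compound or vehicle. Survival was recorded in each group, and the value is the treated-group measurement divided by that of the vehicle-treated control group.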

[1] = dose: 50.0 mg/kg/injection, schedule: Q01DX005 (ip), vehicle: saline with Tween-80
[2] = dose: 100.0 mg/kg/injection, schedule: Q01DX005 (ip), vehicle: saline with Tween-80
[3] = dose: 60.0 mg/kg/injection, schedule: Q01DX005 (ip), vehicle: saline with Tween-80
[4] = dose: 120.0 mg/kg/injection, schedule: Q01DX005 (ip), vehicle: saline with Tween-80
[5] = dose: 240.0 mg/kg/injection, schedule: Q01DX005 (ip), vehicle: saline with Tween-80
[6] = dose: 50.0 mg/kg/injection, schedule: Q01DX005 (ip), vehicle: saline
[7] = dose: 100.0 mg/kg/injection, schedule: Q01DX005 (ip), vehicle: saline
[8] = dose: 200.0 mg/kg/injection, schedule: Q01DX005 (ip), vehicle: saline
[9] = dose: 100.0 mg/kg/injection, schedule: Q04DX003 (ip), vehicle: Klucel (hydroxypropylcellulose) (HPC)
[10] = dose: 200.0 mg/kg/injection, schedule: Q04DX003 (ip), vehicle: Klucel (hydroxypropylcellulose) (HPC)
[11] = dose: 400.0 mg/kg/injection, schedule: Q04DX003 (ip), vehicle: Klucel (hydroxypropylcellulose) (HPC)

## CC(=O)C1=C(C)C2CC3(C)CC(C2(C)C1)C3(C)C (stereo not given)
[1]
  T/C: 100 % of control
[2]
  T/C: 102 % of control
dose: 200.0 mg/kg/injection, schedule: Q01DX005 (ip), vehicle: saline with Tween-80
  T/C: 100 % of control

## O=c1oc2ccccc2cc1-n1nnc2cc([N+](=O)[O-])ccc21
[3]
  T/C: 91 % of control
[4]
  T/C: 89 % of control
[5]
  T/C: 99 % of control

## O=C(O)c1cc(Cl)nnc1Cl
[6]
  T/C: 109 % of control
[7]
  T/C: 100 % of control
[8]
  T/C: 104 % of control

## Cc1c(O)c2c(c(O)c1Cc1cccc(C#N)c1)C(=O)c1ccccc1C2=O
dose: 25.0 mg/kg/injection, schedule: Q01DX009 (ip), vehicle: other
  T/C: 89 % of control

## Cc1cn(C2CC(O)C(CNC(=O)CCl)O2)c(=O)[nH]c1=O (stereo not given)
[6]
  T/C: 105 % of control
[7]
  T/C: 98 % of control
[8]
  T/C: 109 % of control

## Fc1ccc(CN2COc3c(ccc4cccnc34)C2)c(F)c1
[9]
  T/C: 95 % of control
[10]
  T/C: 112 % of control
[11]
  T/C: 89 % of control

## C=C(/C=C/CCCC)NC(=O)OCc1ccccc1
[3]
  T/C: 97 % of control
[4]
  T/C: 96 % of control
[5]
  T/C: 104 % of control

## COc1ccc(C(=O)/C=C/c2ccc(OC)c(OC)c2OC)c(O)c1
[9]
  T/C: 99 % of control
[10]
  T/C: 99 % of control
[11]
  T/C: 90 % of control

## O=S(=O)(O)CNc1ccc(Cl)cc1
dose: 50.0 mg/kg/injection, schedule: Q01DX009 (ip), vehicle: saline with Tween-80
  T/C: 113 % of control
dose: 100.0 mg/kg/injection, schedule: Q01DX009 (ip), vehicle: saline with Tween-80
  T/C: 113 % of control
dose: 200.0 mg/kg/injection, schedule: Q01DX009 (ip), vehicle: saline with Tween-80
  T/C: 106 % of control

## COc1cc(Nc2ccccc2)c2c(c1N)C(=O)c1ccccc1C2=O
[1]
  T/C: 91 % of control
[2]
  T/C: 88 % of control

## CC(=O)OC1CC(c2ccccc2)=NO1 (stereo not given)
dose: 60.0 mg/kg/injection, schedule: Q01DX005 (ip), vehicle: Klucel (hydroxypropylcellulose) (HPC)
  T/C: 106 % of control
dose: 120.0 mg/kg/injection, schedule: Q01DX005 (ip), vehicle: Klucel (hydroxypropylcellulose) (HPC)
  T/C: 95 % of control
dose: 240.0 mg/kg/injection, schedule: Q01DX005 (ip), vehicle: Klucel (hydroxypropylcellulose) (HPC)
  T/C: 103 % of control

## O=P(c1ccccc1)(c1ccccc1)c1ccccc1OCc1cccc(COc2ccccc2P(=O)(c2ccccc2)c2ccccc2)n1
dose: 50.0 mg/kg/injection, schedule: Q01DX005 (ip), vehicle: Klucel (hydroxypropylcellulose) (HPC)
  T/C: 99 % of control
dose: 100.0 mg/kg/injection, schedule: Q01DX005 (ip), vehicle: Klucel (hydroxypropylcellulose) (HPC)
  T/C: 91 % of control
dose: 200.0 mg/kg/injection, schedule: Q01DX005 (ip), vehicle: Klucel (hydroxypropylcellulose) (HPC)
  T/C: 97 % of control

## COC1=CC(=O)C(C2OC(=O)C(Cl)=C2Cl)=CC1=O (stereo not given)
[1]
  T/C: 114 % of control
[2]
  T/C: 119 % of control

## O=NNc1ccc(F)cn1
dose: 3.12 mg/kg/injection, schedule: Q01DX009 (ip), vehicle: water
  T/C: 117 % of control
dose: 12.5 mg/kg/injection, schedule: Q01DX009 (ip), vehicle: water
  T/C: 153 % of control
dose: 25.0 mg/kg/injection, schedule: Q01DX009 (ip), vehicle: water
  T/C: 162 % of control and 166 % of control
dose: 50.0 mg/kg/injection, schedule: Q01DX009 (ip), vehicle: water
  T/C: 99 % of control

## CN(C)c1ccc(C(=C(c2ccc(N(C)C)cc2)c2ccc(N(C)C)cc2)c2ccc(N(C)C)cc2)cc1
dose: 12.5 mg/kg/injection, schedule: Q01DX005 (ip), vehicle: saline with Tween-80
  T/C: 96 % of control
dose: 25.0 mg/kg/injection, schedule: Q01DX005 (ip), vehicle: saline with Tween-80
  T/C: 92 % of control
[1]
  T/C: 89 % of control

## CCn1c2ccccc2c2cc(N)c(N=Nc3cc(OC)c(N=Nc4ccc([N+](=O)[O-])cc4)cc3OC)cc21
dose: 50.0 mg/kg/injection, schedule: Q01DX009 (ip), vehicle: Klucel (hydroxypropylcellulose) (HPC)
  T/C: 104 % of control
dose: 100.0 mg/kg/injection, schedule: Q01DX009 (ip), vehicle: Klucel (hydroxypropylcellulose) (HPC)
  T/C: 105 % of control
dose: 200.0 mg/kg/injection, schedule: Q01DX009 (ip), vehicle: Klucel (hydroxypropylcellulose) (HPC)
  T/C: 112 % of control
